Assay results as given in PubChem BioAssay (NCI).
“And” between values parts separate entries of the source, which are not always exact repeats. Identical values can stand only once.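 Exposure lasted 48 hours, with cells grown in 96-well plates and compounds tested at five concentrations. At the GI50, growth is halved. Definition used: TGI = concentration required for complete inhibition of growth.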

Assays:
Experiment in all cases: NCI tumour cell line growth inhibition, 48 h
[1] = test system: HCT-15 colon
[2] = test system: HOP-92 NSCLC
[3] = test system: HOP-18 NSCLC
[4] = test system: ACHN renal
[5] = test system: CCRF-CEM leukemia
[6] = test system: A498 renal
[7] = test system: OVCAR-3 ovarian
[8] = test system: SK-MEL-2 melanoma
[9] = test system: MCF7 breast
[10] = test system: SNB-78 CNS
[11] = test system: SK-MEL-28 melanoma
[12] = test system: HT29 colon
[13] = test system: HCT-116 colon
[14] = test system: M19-MEL melanoma
[15] = test system: DMS 114 small cell lung
[16] = test system: HCC-2998 colon
[17] = test system: MALME-3M melanoma
[18] = test system: COLO 205 colon
[19] = test system: SK-MEL-5 melanoma
[20] = test system: SR leukemia
[21] = test system: EKVX NSCLC
[22] = test system: RPMI-8226 leukemia
[23] = test system: NCI-H522 lung
[24] = test system: TK-10 renal
[25] = test system: KM12 colon
[26] = test system: P388 leukemia
[27] = test system: IGROV1 ovarian
[28] = test system: SNB-19 CNS
[29] = test system: SK-OV-3 ovarian
[30] = test system: A549 NSCLC
[31] = test system: SW-620 colon
[32] = test system: 786-0 renal
[33] = test system: MOLT-4 leukemia
[34] = test system: NCI-H23 lung
[35] = test system: P388/ADR leukemia
[36] = test system: UACC-257 melanoma
[37] = test system: OVCAR-4 ovarian
[38] = test system: HL-60(TB) leukemia
[39] = test system: DMS 273 small cell lung
[40] = test system: DU-145 prostate
[41] = test system: T-47D breast
[42] = test system: SF-295 CNS
[43] = test system: LXFL 529 NSCLC
[44] = test system: SF-539 CNS
[45] = test system: K-562 leukemia
[46] = test system: OVCAR-5 ovarian
[47] = test system: KM20L2 colon
[48] = test system: OVCAR-8 ovarian
[49] = test system: MDA-MB-435
[50] = test system: SN12C renal
[51] = test system: SNB-75 CNS
[52] = test system: MDA-N
[53] = test system: HOP-62 NSCLC
[54] = test system: MDA-MB-231 breast
[55] = test system: XF 498 CNS
[56] = test system: M14 melanoma
[57] = test system: U251 CNS
[58] = test system: UACC-62 melanoma
[59] = test system: NCI-H226 lung
[60] = test system: NCI/ADR-RES ovarian
[61] = test system: RXF 393 renal
[62] = test system: HS 578T breast
[63] = test system: SF-268 CNS
[64] = test system: CAKI-1 renal
[65] = test system: NCI-H460 lung
[66] = test system: UO-31 renal
[67] = test system: SN12K1 renal

C=C1C(C)C2C(Cc3ccccc3)NC(=O)C23C(OC(C)=O)C=CC(C)(O)C(=O)C(C)C/C=C/C3C1O (stereo unspecified)
GI50 [1]: > 500 µM
TGI [1]: > 500 µM
GI50 [2]: 0.171 µM
TGI [2]: 2.45 µM and 1.21 µM
GI50 [3]: 0.0404 µM and 0.05 µM
TGI [3]: 1.09 µM and 0.117 µM
GI50 [4]: 1.28 µM
TGI [4]: > 196 µM
GI50 [5]: 15.4 µM
TGI [5]: 78.8 µM and > 500 µM
GI50 [6]: 0.202 µM and 0.05 µM
TGI [6]: 1.47 µM and 13.9 µM
TGI [7]: > 500 µM
TGI [8]: 74.8 µM
GI50 [9]: 8.87 µM
TGI [9]: 87 µM and 275 µM
TGI [10]: 1.55 µM
GI50 [11]: 22.2 µM
TGI [11]: 57.7 µM and 153 µM
GI50 [12]: 0.0505 µM and 0.176 µM and 0.0663 µM
TGI [12]: > 278 µM
GI50 [13]: 1.04 µM
TGI [13]: > 500 µM
GI50 [14]: 57.3 µM
TGI [14]: 93.4 µM and > 500 µM
GI50 [15]: 11.1 µM
TGI [15]: 65.6 µM and > 500 µM
GI50 [16]: > 500 µM
TGI [16]: > 500 µM
GI50 [17]: 61.7 µM
TGI [17]: > 96.7 µM and 489 µM
GI50 [18]: 0.0825 µM
TGI [18]: > 500 µM
GI50 [19]: 2.17 µM
TGI [20]: > 289 µM
TGI [21]: > 95.5 µM and 30 µM
GI50 [22]: 3.9 µM
TGI [22]: 65.5 µM and > 500 µM
TGI [23]: 27.3 µM and 36.4 µM
GI50 [24]: 0.732 µM
GI50 [25]: 163 µM
TGI [25]: > 500 µM
TGI [26]: 51.7 µM
GI50 [27]: 0.79 µM
GI50 [28]: 0.474 µM
GI50 [29]: 0.0761 µM and 0.23 µM
TGI [29]: 49.5 µM and 76.1 µM
GI50 [30]: 0.241 µM
TGI [30]: > 500 µM
GI50 [31]: > 500 µM
TGI [31]: > 500 µM
GI50 [32]: 2.05 µM
TGI [32]: 56.2 µM and > 120 µM
GI50 [33]: 17.9 µM
TGI [33]: 78.3 µM and > 500 µM
GI50 [34]: 15.6 µM
TGI [34]: 82.2 µM and 259 µM
TGI [35]: 90.3 µM
GI50 [36]: 26.3 µM
TGI [36]: 45.4 µM and 335 µM
GI50 [37]: 10.4 µM
TGI [37]: 99.8 µM and > 500 µM
GI50 [38]: 1.61 µM
TGI [38]: 20.5 µM and 15.7 µM
GI50 [39]: 0.05 µM
TGI [39]: 73.9 µM and > 500 µM
GI50 [40]: 19.1 µM
TGI [40]: > 500 µM
GI50 [41]: 5.14 µM
TGI [41]: > 357 µM
GI50 [42]: 0.418 µM
TGI [42]: 30.5 µM and 62.3 µM
TGI [43]: 96.4 µM
GI50 [44]: 0.208 µM
TGI [44]: 2.77 µM and 1.22 µM
GI50 [45]: 13.6 µM
TGI [45]: > 500 µM
TGI [46]: > 500 µM
GI50 [47]: 0.275 µM
TGI [47]: 99.2 µM and > 500 µM
GI50 [48]: > 471 µM
TGI [48]: > 500 µM
GI50 [49]: 2.32 µM
TGI [49]: > 414 µM
GI50 [50]: 14.9 µM
TGI [50]: 499 µM
GI50 [51]: 0.0218 µM and 0.05 µM
GI50 [52]: 1.75 µM
TGI [52]: 21.4 µM and > 162 µM
GI50 [53]: 0.0431 µM and 0.106 µM
GI50 [54]: 0.193 µM
TGI [54]: > 220 µM
TGI [55]: 28.5 µM
GI50 [56]: 3.18 µM
TGI [57]: 5.47 µM and 53.2 µM
GI50 [58]: 29.4 µM
TGI [58]: > 285 µM
TGI [59]: 51.4 µM and > 500 µM
GI50 [60]: > 500 µM
TGI [60]: > 500 µM
GI50 [61]: 0.0604 µM
TGI [61]: 1.55 µM and 1.04 µM
GI50 [62]: 0.0185 µM and 0.0551 µM
TGI [62]: 2.07 µM and 1.18 µM
GI50 [63]: 0.698 µM
GI50 [64]: 0.05 µM
TGI [64]: 1.12 µM and 1.66 µM
GI50 [65]: 0.291 µM
TGI [65]: > 295 µM
TGI [66]: 1.62 µM and 14.3 µM
TGI [67]: 58.3 µM
